Here are results for 2 compounds from patent publication US20100298376A1, “USE OF NOVEL NEUROPROTECTIVE 3-SUBSTITUTED INDOLONE COMPOSITIONS” (BOARD OF REGENTS, THE UNIVERSITY OF TEXAS SYSTEM, priority 2009, published 2010).

SMILES strings stand for the structures. Values joined by “and” are separate entries in the source; they are usually repeats but may differ in a detail not shown here. Equal entries are not always repeated. Where two headings read alike, the source gives them in different places.

Data set [1] deals with cerebellar granule neurons. Particulars: for % neuronal survival Mean ± SD: Table 1, 24 hours, percent of HK control. How it is done: These compounds were analyzed for their neuroprotective activity in vitro. Granule neuron cultures were obtained from dissociated cerebella of 7-8 day old Wistar rats as known to one of ordinary skill in the art. Cells were plated in Basal Eagle's Medium with Earles salts (BME) supplemented with 10% fetal calf serum (FCS), 25 mM KCl, 2 mM glutamine (Invitrogen), and 100 μg/ml gentamycin on dishes (Nunc) coated with poly-L-lysine in 24-well dishes at a density 1×10^6 cells/well. Cytosine arabinofuranoside (10 μM) was added to the culture medium 18-22 hours after plating to prevent replication of non-neuronal cells that yields highly pure culture of granule neurons. The neuronal cultures were maintained for 7-8 days prior to treatments.
This experimental model of neuronal apoptosis has been used widely used to understand the molecular mechanisms underlying neurodegeneration and to identify biological and chemical agents with neuroprotective efficacy. For this, the cells were rinsed once and then maintained in low K^+ medium (serum-free BME medium, 5 mM KCl; referred to as LK), or in the case of control cultures, in high K^+ medium (serum-free BME medium, supplemented with 20 mM KCl; referred to as HK). Each compound was tested at three different concentrations of 1 μM, 5 μM, and 25 μM. The 25 μM concentration was included to evaluate neurotoxicity. For treatments, the chemical compounds (dissolved in dimethylsulfoxide) were added directly to LK medium at the time of the switch from HK at concentrations of 1 μM, 5 μM, or 25 μM. Viability was assessed 24 hours later. Each compound was tested in duplicate (at each of the concentrations) and the experiment repeated at least 3 times. Although all compounds were solubilized in dimethylsulfoxide (DMSO), the amount of DMSO in the cultures never exceeded 0.1% (v/v).
The viability status of neuronal cultures treated with HK, LK, or LK medium supplemented with various compounds was evaluated by phase contrast microscopy and quantified by staining cell nuclei with 4′,6′-diamidino2-phenylindole hydrochloride (DAPI). Briefly, the cells were fixed in 4% paraformaldehyde for 20 minutes at 4′C. After washing in phosphate buffered saline, DAPI (1 μg/ml in phosphate buffered saline) was added for 15 min at room-temperature and viewed under ultraviolet light (260 nm). Cells with condensed or fragmented nuclei were scored as dead. […] Statistical analysis was performed using an unpaired, two-tailed Student's t test, compared to mean neuronal survival of control cultures receiving LK treatment and the quantitative data are presented in Tables 1 and 2 for each compound.

In data set [2] the test system is cerebellar granule neurons. The data set can be described thus: TUNEL and active caspase-3 immunoreactivity in neuronal cultures (FIG. 1). Particulars: Compound 31 at 1 μm, compared with Compounds 7, 37 and 39, 24 hours. In kind it is cell-based, Wistar rats. The source says: FIG. 1 is a photograph illustrating the qualitative neuroprotective effects of Compound 7 (5 μm), Compound 31 (1 μm), Compound 37 (25 μm) and Compound 39 (25 lam) are illustrated presented in the figure. From left to right columns show phase-contrast micrographs of neuronal morphology, DAPI staining of nuclei showing fragmented nuclei, TUNEL staining also showing fragmented DNA, and active caspase-3 immunoreactivity highly indicative of apoptosis. DAPI and TUNEL panels are taken from the same fields.
The TUNEL assay of neuronal cultures was performed 24 hours after treatment of the cultures using DEADEND™ Fluorometric TUNEL System from Promega (Madison, Wis.) according to the manufacturer's instructions. For immunocytochemical analysis of active caspase 3, neuronal cultures cells were fixed and treated with 0.2% Triton for 5 minutes. After blocking with PBS containing 5% BSA and 5% goat serum in PBS for 30 minutes, the coverslips were incubated with the active capase-3 primary antibody overnight at 4° C. After three washes with phosphate-buffered saline (PBS), the cells were incubated with secondary antibodies for 45 minutes at 25° C. after which the cells were washed with PBS. To visualize nuclei, cells were stained with DAPI for 15 minutes at 25° C.

Data set [3] in a line: Solubility in the culture medium. The following applies: 25 μM.
Data set [4] can be described thus: Z/E isomer stability in DMSO-d6 by NMR. In kind it is physicochemical. Particulars: 6 hours from mixing.
The mark [5] stands for this setting: LK medium, concentration not specified.

`O=C1Nc2ccc(F)cc2/C1=C\c1cc(Br)cc(Br)c1` [Compound 31, (E)-3-(3′,5′-Dibromobenzylidene)-5-fluoroindolin-2-one]: the “neuroprotective activity (in words)” value in data set [1] (setting [5]) was “lack of neuroprotective activity”. The “% neuronal survival Mean ± SD” value in data set [1] (1 μM in LK medium) worked out at 38.4 ± 6.24%; in data set [1] (5 μM in LK medium), 46.1 ± 4.00%; in data set [1] (25 μM in LK medium), 48.1 ± 14.65%. Besides, in data set [2], the “TUNEL and active caspase-3 immunoreactivity (in words)” value is “greater TUNEL and active caspase-3 immunoreactivity”.

Consider `O=C1Nc2ccc(Br)cc2/C1=C\c1cc(Br)c(O)c(Br)c1` [Compound 16, (E)-5-Bromo-3-(3′,5′-dibromo-4-hydroxybenzylidene)indolin-2-one], for which, in data set [1], the “neurotoxicity (in words)” value is listed as “not toxic”. Besides, the “neuroprotective activity (in words)” value in data set [1] (setting [5]) is “superior to Compound 1”; in data set [1] (at 1 μM and 5 μM (two lower concentrations)), “highly protective”; in data set [1] (at 5 μM) it was “highly effective”. The “% neuronal survival Mean ± SD” value in data set [1] (1 μM in LK medium) was 88.4 ± 0.71 %; in data set [1] (5 μM in LK medium), 98.7% and 98.7 ± 3.85 %. For the same compound, in data set [3], the “solubility in the culture medium (in words)” value is “not completely soluble”. Moreover, the “percent of Z configuration after 6 hours” value in data set [4] is given as 80%.
